This assay has as its target T1, HEK cells stably transfected with tetracycline inducible hNR1 and hNR2A (Homo sapiens, UniProt Q05586+Q12879).
T1 construct: expressed in transfected cells; host or cells: HEK cells, stably transfected, tetracycline/doxycycline inducible
The assay can be described thus: Assay 1: Cell-Based Assay, cytosolic calcium response to positive allosteric modulators (with 30 μM glycine and 300 nM L-glutamate, EC30). The conditions noted are these: Table 2; for EC50: cytosolic calcium response, with 30 μM glycine and 300 nM L-glutamate (EC30), — = no plateau was reached; for Max %: responses scaled relative to 100 μM L-glutamate maximal response (100%) and 0 μM L-glutamate (0%). The method, boiled down:
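Cells induced 24 h with 7.5 μg mL^−1 doxycycline plus 500 μM (+)-ketamine, loaded 60 min at 37 °C with calcium dye in Mg-free HBSS (1.8 mM Ca, probenecid, 10 μM (+)-ketamine, pH 7.15). Peak RFU over 5 min after compound addition, scaled to 100 μM L-glutamate (100%) and 0 μM (0%); four-parameter Hill fit for EC50, max % if no plateau.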

T1 sequence (Q12879 23-1464, other chains not shown): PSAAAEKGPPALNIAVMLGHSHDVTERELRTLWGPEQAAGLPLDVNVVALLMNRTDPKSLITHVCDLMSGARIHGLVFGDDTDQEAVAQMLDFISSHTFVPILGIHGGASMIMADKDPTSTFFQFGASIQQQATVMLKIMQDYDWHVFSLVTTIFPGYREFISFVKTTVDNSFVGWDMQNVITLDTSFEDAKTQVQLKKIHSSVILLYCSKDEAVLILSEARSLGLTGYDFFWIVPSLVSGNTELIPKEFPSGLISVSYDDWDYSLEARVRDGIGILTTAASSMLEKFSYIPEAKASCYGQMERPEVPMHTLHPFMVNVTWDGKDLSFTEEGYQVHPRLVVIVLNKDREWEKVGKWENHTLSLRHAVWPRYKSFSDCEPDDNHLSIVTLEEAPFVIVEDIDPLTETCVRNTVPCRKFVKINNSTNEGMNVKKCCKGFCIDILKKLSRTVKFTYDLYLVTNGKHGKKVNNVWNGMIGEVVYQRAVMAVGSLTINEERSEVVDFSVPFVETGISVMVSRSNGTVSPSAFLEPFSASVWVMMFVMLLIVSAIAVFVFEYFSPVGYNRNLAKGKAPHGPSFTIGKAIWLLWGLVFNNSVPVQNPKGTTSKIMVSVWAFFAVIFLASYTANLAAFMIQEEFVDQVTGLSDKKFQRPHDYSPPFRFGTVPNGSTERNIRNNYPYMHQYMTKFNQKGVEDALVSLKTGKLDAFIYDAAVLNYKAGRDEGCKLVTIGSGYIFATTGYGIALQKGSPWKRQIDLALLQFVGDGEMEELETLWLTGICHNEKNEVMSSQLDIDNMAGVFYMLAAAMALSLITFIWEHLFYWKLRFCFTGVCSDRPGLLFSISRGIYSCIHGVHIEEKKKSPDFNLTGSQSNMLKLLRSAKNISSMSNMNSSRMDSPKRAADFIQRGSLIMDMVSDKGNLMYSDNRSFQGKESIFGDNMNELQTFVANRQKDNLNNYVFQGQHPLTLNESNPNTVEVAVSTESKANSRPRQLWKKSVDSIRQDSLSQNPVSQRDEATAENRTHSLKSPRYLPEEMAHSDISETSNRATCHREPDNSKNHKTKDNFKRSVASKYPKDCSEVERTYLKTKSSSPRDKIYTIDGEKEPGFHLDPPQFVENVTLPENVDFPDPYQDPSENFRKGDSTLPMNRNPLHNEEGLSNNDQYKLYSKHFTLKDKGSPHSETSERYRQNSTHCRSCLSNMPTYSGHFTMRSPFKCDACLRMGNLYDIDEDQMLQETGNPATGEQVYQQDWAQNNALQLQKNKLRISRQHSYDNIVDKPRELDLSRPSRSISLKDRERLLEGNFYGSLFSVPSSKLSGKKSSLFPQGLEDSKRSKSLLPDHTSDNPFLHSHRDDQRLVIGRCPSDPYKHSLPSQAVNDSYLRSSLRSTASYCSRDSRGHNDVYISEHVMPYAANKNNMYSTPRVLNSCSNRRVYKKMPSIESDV

Regarding `CCN(Cc1cc(=O)n2c(COC)c(C)sc2n1)c1cccc(C#N)c1` [Example 10.24, 3-[ethyl-[[3-(methoxymethyl)-2-methyl-5-oxo-thiazolo[3,2-a]pyrimidin-7-yl]methyl]amino]benzonitrile], the concentration giving a half-maximal response (EC50) – broadly, the concentration needed to bring the measured effect to its halfway point – was determined as 8900 nM and the Max % is listed as 160%.

On to `CCN(Cc1cc(=O)n2c(CSC)c(C)sc2n1)c1ccc(F)cc1` [Example 10.25, 7-((ethyl(4-fluorophenyl)amino)methyl)-2-methyl-3-((methylthio)methyl)-5H-thiazolo[3,2-a]pyrimidin-5-one], for which the EC50 was 345 nM and the Max % is given as 165%.

For the compound `CCN(Cc1cc(=O)n2c(Cl)c(C)sc2n1)c1ccc(F)cc1` [Example 11.1, 3-chloro-7-[[ethyl(4-fluorophenyl)amino]methyl]-2-methyl-5H-[1,3]thiazolo[3,2-a]pyrimidin-5-one], the 50% effective concentration (EC50) was found to be 2000 nM and the Max % is reported as 159%.

On to `CCN(Cc1cc(=O)n2c(F)c(C)sc2n1)c1ccc(F)cc1` [Example 11.2, 7-[(N-ethyl-4-fluoro-anilino)methyl]-3-fluoro-2-methyl-thiazolo[3,2-a]pyrimidin-5-one], for which the Max % was determined as 107%.

Turning to `CCN(Cc1cc(=O)n2cc(C)sc2n1)c1ccc(F)cc1` [Example 11.3, 7-[(N-ethyl-4-fluoro-anilino)methyl]-2-methyl-thiazolo[3,2-a]pyrimidin-5-one], the concentration giving a half-maximal response (EC50) is 3200 nM and the Max % is given as 132%.

Take `CCN(Cc1cc(=O)n2c(I)c(C)sc2n1)c1ccc(F)cc1` [Example 11.4, 7-[(N-ethyl-4-fluoro-anilino)methyl]-3-iodo-2-methyl-thiazolo[3,2-a]pyrimidin-5-one]: the Max % amounted to 103%.

For `CCN(Cc1cc(=O)n2c(Cl)csc2n1)c1ccc(F)cc1` [Example 11.5, 3-chloro-7-[(N-ethyl-4-fluoro-anilino)methyl]thiazolo[3,2-a]pyrimidin-5-one], the EC50 amounted to 4600 nM and the Max % is recorded as 167%.

On to `CCN(Cc1cc(=O)n2cc(C)sc2n1)c1ccccc1` [Example 11.6, 7-[(N-ethylanilino)methyl]-2-methyl-thiazolo[3,2-a]pyrimidin-5-one], for which the EC50 was 5000 nM and the Max % is reported as 133%.

For `CCN(Cc1cc(=O)n2c(C(O)CCO)c(C)sc2n1)c1ccc(F)cc1` (stereo not drawn) [Example 12.1, 3-(1,3-dihydroxypropyl)-7-[(N-ethyl-4-fluoro-anilino)methyl]-2-methyl-thiazolo[3,2-a]pyrimidin-5-one], the 50% effective concentration (EC50) was 723 nM and the Max % stood at 166%.

As to `CCN(Cc1cc(=O)n2c(C(F)CCO)c(C)sc2n1)c1ccc(F)cc1` (stereo not drawn) [Example 12.2, 7-[(N-ethyl-4-fluoro-anilino)methyl]-3-(1-fluoro-3-hydroxy-propyl)-2-methyl-thiazolo[3,2-a]pyrimidin-5-one], the 50% effective concentration (EC50) was found to be 270 nM and the Max % is reported as 192%.

On to `CCN(Cc1cc(=O)n2c(C(O)CO)c(C)sc2n1)c1ccc(F)cc1` (stereo not drawn) [Example 12.5, 3-(1,2-dihydroxyethyl)-7-[(N-ethyl-4-fluoro-anilino)methyl]-2-methyl-thiazolo[3,2-a]pyrimidin-5-one], for which the EC50 was 974 nM and the Max % was 153%.

As for `CCN(Cc1cc(=O)n2c(CCCO)c(C)sc2n1)c1ccc(F)cc1` [Example 13.1, 7-[(N-ethyl-4-fluoro-anilino)methyl]-3-(3-hydroxypropyl)-2-methyl-thiazolo[3,2-a]pyrimidin-5-one], the EC50 is 434 nM and the Max % turned out to be 161%.

Consider `CCN(Cc1cc(=O)n2c(CCCOC)c(C)sc2n1)c1ccc(F)cc1` [Example 13.2, 7-((Ethyl(4-fluorophenyl)amino)methyl)-3-(3-methoxypropyl)-2-methyl-5H-thiazolo[3,2-a]pyrimidin-5-one], for which the concentration for a half-maximal effect (EC50) amounted to 913 nM and the Max % was 130%.

In the case of `CCN(Cc1cc(=O)n2c(CCCCO)c(C)sc2n1)c1ccc(F)cc1` [Example 13.3, 7-((Ethyl(4-fluorophenyl)amino)methyl)-3-(4-hydroxybutyl)-2-methyl-5H-thiazolo[3,2-a]pyrimidin-5-one], the EC50 turned out to be 783 nM and the Max % came to 137%.

For the compound `CCN(Cc1cc(=O)n2c(CCO)c(C)sc2n1)c1ccc(F)cc1` [Example 13.4, 7-((Ethyl(4-fluorophenyl)amino)methyl)-3-(2-hydroxyethyl)-2-methyl-5H-thiazolo[3,2-a]pyrimidin-5-one], the 50% effective concentration (EC50) was 777 nM and the Max % was found to be 185%.

`CCN(Cc1cc(=O)n2c(CCOC)c(C)sc2n1)c1ccc(F)cc1` [Example 13.5, 7-[[Ethyl(4-fluorophenyl)amino]methyl]-3-(2-methoxyethyl)-2-methyl-5H-[1,3]thiazolo[3,2-a]pyrimidin-5-one]: the concentration for a half-maximal effect (EC50) amounted to 1000 nM and the Max % was 152%.

For `CCN(Cc1cc(=O)n2c(CCC(N)=O)c(C)sc2n1)c1ccc(F)cc1` [Example 13.6, 3-(7-[[ethyl(4-fluorophenyl)amino]methyl]-2-methyl-5-oxo-5H-[1,3]thiazolo[3,2-a]pyrimidin-3-yl)propanamide], the EC50 amounted to 1400 nM and the Max % worked out at 125%.

For the compound `CCN(Cc1cc(=O)n2c(CCC#N)c(C)sc2n1)c1ccc(F)cc1` [Example 13.7, 3-[7-[(N-ethyl-4-fluoro-anilino)methyl]-2-methyl-5-oxo-thiazolo[3,2-a]pyrimidin-3-yl]propanenitrile], the 50% effective concentration (EC50) was determined as 547 nM and the Max % turned out to be 137%.

Take `CCN(Cc1cc(=O)n2c(CCC(=O)N(C)C)c(C)sc2n1)c1ccc(F)cc1` [Example 13.8, 3-[7-[(N-ethyl-4-fluoro-anilino)methyl]-2-methyl-5-oxo-thiazolo[3,2-a]pyrimidin-3-yl]-N,N-dimethyl-propanamide]: the Max % worked out at 61.2%.

For `CCN(Cc1cc(=O)n2c(CCC(C)(C)O)c(C)sc2n1)c1ccc(F)cc1` [Example 13.9, 7-[[Ethyl(4-fluorophenyl)amino]methyl]-3-(3-hydroxy-3-methylbutyl)-2-methyl-5H-[1,3]thiazolo[3,2-a]pyrimidin-5-one], the concentration for a half-maximal effect (EC50) came out at 5000 nM and the Max % was determined as 166%.

In the case of `CCN(Cc1cc(=O)n2c(C3CC3C(N)=O)c(C)sc2n1)c1ccc(F)cc1` (stereo not drawn) [Example 14.1, 2-[7-[(N-ethyl-4-fluoro-anilino)methyl]-2-methyl-5-oxo-thiazolo[3,2-a]pyrimidin-3-yl]cyclopropanecarboxamide], the concentration for a half-maximal effect (EC50) was found to be 2600 nM and the Max % was 163%.

With `CCN(Cc1cc(=O)n2c(C3CC3C#N)c(C)sc2n1)c1ccc(F)cc1` (stereo not drawn) [Example 14.2, 2-(7-[[ethyl(4-fluorophenyl)amino]methyl]-2-methyl-5-oxo-5H-[1,3]thiazolo[3,2-a]pyrimidin-3-yl)cyclopropane-1-carbonitrile], the EC50 amounted to 122 nM and the Max % is 205%.

`CCc1cc(C(F)(F)F)nn1Cc1cc(=O)n2c(C3CC3CO)c(C)sc2n1` (stereo not drawn) [Example 15.1, 7-((5-ethyl-3-(trifluoromethyl)-1H-pyrazol-1-yl)methyl)-3-(2-(hydroxymethyl)cyclopropyl)-2-methyl-5H-thiazolo[3,2-a]pyrimidin-5-one]: the half-maximal effective concentration (EC50) is 2200 nM and the Max % is listed as 144%.

Take `Cc1sc2nc(Cn3nc(C4CC4)c(F)c3C(F)(F)F)cc(=O)n2c1C1CC1CO` (stereo not drawn) [Example 15.9, 7-((3-cyclopropyl-4-fluoro-5-(trifluoromethyl)-1H-pyrazol-1-yl)methyl)-3-(trans-2-(hydroxymethyl)cyclopropyl)-2-methyl-5H-thiazolo[3,2-a]pyrimidin-5-one]: the 50% effective concentration (EC50) worked out at 18600 nM and the Max % worked out at 117%.

For the compound `Cc1sc2nc(Cn3nc(C(F)(F)F)c(F)c3C3CC3)cc(=O)n2c1C1CC1CO` (stereo not drawn) [Example 15.10, 7-((5-cyclopropyl-4-fluoro-3-(trifluoromethyl)-1H-pyrazol-1-yl)methyl)-3-(trans-2-(hydroxymethyl)cyclopropyl)-2-methyl-5H-thiazolo[3,2-a]pyrimidin-5-one], the EC50 amounted to 3100 nM and the Max % was found to be 133%.

Regarding `CC(C)c1sc2nc(Cn3nc(C(F)(F)F)cc3C3CC3)cc(=O)n2c1C1CC1CO` (stereo not drawn) [Example 15.24, 7-[[5-cyclopropyl-3-(trifluoromethyl)pyrazol-1-yl]methyl]-3[2-(hydroxymethyl)cyclopropyl]-2-isopropyl-thiazolo[3,2-a]pyrimidin-5-one], the EC50 amounted to 1400 nM and the Max % is 138%.

Consider `Cc1sc2nc(Cn3nc(C4CC4)cc3C(F)(F)F)cc(=O)n2c1-c1cncnc1` [Example 15.28, 7-((3-cyclopropyl-5-(trifluoromethyl)-1H-pyrazol-1-yl)methyl)-2-methyl-3-(pyrimidin-5-yl)-5H-thiazolo[3,2-a]pyrimidin-5-one], for which the Max % is 80.8%.

`Cc1sc2nc(Cn3nc(C(F)(F)F)cc3C3CC3)cc(=O)n2c1-c1cncnc1` [Example 15.29, 7-((5-cyclopropyl-3-(trifluoromethyl)-1H-pyrazol-1-yl)methyl)-2-methyl-3-(pyrimidin-5-yl)-5H-thiazolo[3,2-a]pyrimidin-5-one]: the EC50 came out at 7000 nM and the Max % is on record as 135%.

In the case of `Cc1sc2nc(Cn3nc(C(F)(F)F)cc3C(F)(F)F)cc(=O)n2c1-c1cncnc1` [Example 15.30, 7-((3,5-bis(trifluoromethyl)-1H-pyrazol-1-yl)methyl)-2-methyl-3-(pyrimidin-5-yl)-5H-thiazolo[3,2-a]pyrimidin-5-one], the EC50 turned out to be 22000 nM and the Max % was 116%.

These data come from patent publication US9988400B2 (Genentech, Inc., priority 2013, dated 2018).
